This note sets out measurements from ChEMBL document CHEMBL3351473, “Synthesis and biological evaluation of α-1-C-4'-arylbutyl-L-arabinoiminofuranoses, a new class of α-glucosidase inhibitors” (Bioorg Med Chem Lett, 2014).

Test [1] concerns the target T1, Sucrase-isomaltase, intestinal (Rattus norvegicus, UniProt P23739). The experiment in a line: Inhibition of Wistar rat intestinal isomaltase assessed as inhibition of D-glucose release after 30 mins by spectrophotometry.
Test [2] addresses T1, Sucrase-isomaltase, intestinal. Briefly: Inhibition of Wistar rat intestinal sucrase assessed as inhibition of D-glucose release after 30 mins by spectrophotometry.
The nature of test [3]: Inhibition of Wistar rat intestinal maltase assessed as inhibition of D-glucose release after 30 mins by spectrophotometry.

T1 sequence (P23739 1-1013 limits assumed): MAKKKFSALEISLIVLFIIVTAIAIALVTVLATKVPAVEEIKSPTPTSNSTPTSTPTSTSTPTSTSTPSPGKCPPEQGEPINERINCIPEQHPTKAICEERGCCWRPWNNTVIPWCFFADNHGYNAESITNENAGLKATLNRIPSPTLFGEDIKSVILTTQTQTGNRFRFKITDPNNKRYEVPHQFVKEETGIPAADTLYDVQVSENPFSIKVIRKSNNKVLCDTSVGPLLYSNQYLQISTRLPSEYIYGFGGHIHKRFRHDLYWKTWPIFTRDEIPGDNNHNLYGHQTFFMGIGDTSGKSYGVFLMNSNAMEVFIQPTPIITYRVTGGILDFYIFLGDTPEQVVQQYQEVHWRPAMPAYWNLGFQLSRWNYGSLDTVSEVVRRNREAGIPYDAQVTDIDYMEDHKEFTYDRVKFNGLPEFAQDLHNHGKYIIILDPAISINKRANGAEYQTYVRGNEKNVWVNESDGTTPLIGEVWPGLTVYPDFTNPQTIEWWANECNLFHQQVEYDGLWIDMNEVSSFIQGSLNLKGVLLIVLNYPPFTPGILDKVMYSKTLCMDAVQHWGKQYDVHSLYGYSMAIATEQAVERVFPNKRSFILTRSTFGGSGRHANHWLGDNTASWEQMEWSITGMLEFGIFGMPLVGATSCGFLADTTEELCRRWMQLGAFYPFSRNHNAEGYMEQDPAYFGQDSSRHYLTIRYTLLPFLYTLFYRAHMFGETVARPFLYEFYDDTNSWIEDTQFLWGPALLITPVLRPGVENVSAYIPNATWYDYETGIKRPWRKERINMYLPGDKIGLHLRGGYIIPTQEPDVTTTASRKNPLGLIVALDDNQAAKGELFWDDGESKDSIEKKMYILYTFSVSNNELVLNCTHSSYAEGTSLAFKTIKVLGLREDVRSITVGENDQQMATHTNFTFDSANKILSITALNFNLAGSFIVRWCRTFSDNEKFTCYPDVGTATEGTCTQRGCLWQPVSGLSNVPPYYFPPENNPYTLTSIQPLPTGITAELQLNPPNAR
T1 sequence (P23739 1014-1841 limits assumed): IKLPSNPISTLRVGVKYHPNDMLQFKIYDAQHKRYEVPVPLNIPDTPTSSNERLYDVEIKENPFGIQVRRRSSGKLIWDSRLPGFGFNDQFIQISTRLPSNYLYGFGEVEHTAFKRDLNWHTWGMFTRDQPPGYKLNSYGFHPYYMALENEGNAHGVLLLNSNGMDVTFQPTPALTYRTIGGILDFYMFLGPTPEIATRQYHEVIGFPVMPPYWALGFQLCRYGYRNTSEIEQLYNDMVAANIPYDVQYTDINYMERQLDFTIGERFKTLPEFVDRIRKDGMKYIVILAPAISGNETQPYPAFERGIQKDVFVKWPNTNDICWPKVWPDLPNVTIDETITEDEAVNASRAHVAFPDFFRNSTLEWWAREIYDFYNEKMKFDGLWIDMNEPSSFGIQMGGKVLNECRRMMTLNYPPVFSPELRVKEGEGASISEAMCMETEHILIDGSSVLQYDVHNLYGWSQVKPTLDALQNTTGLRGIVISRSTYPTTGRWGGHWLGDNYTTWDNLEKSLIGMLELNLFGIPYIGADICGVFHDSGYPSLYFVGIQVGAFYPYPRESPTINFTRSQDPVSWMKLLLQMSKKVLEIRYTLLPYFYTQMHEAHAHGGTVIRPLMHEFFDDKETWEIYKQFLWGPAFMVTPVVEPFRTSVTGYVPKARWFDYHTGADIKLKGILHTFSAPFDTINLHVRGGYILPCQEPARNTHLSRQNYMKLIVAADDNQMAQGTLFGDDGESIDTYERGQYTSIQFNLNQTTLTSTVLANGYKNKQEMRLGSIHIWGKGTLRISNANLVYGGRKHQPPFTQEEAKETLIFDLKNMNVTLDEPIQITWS

For orientation: IC50 means the midpoint of a concentration-inhibition curve. Turning to `Cc1ccc(CCCC[C@@H]2N[C@@H](CO)[C@H](O)[C@H]2O)cc1`, the results for the IC50 in test [1] and in test [2] were 630 nM and 45 nM, respectively.
As to `OC[C@@H]1N[C@@H](CCCCc2ccccc2)[C@H](O)[C@H]1O`, the IC50 in test [3] was determined as 220 nM.
With `COc1ccc(CCCC[C@@H]2N[C@@H](CO)[C@H](O)[C@H]2O)cc1`, the IC50 in test [1] amounted to 1800 nM; in test [2] it was 130 nM.
Regarding `OC[C@@H]1N[C@@H](CCCCc2cc(F)cc(F)c2)[C@H](O)[C@H]1O`, the IC50 worked out at 220 nM in test [1] and 26 nM in test [2].
As to `OC[C@@H]1N[C@@H](CCCCc2ccc(O)cc2)[C@H](O)[C@H]1O`, the IC50 in test [1] was found to be 6000 nM; in test [2], 110 nM.
For the compound `OC[C@@H]1N[C@@H](CCCCc2ccc(F)cc2)[C@H](O)[C@H]1O`, the IC50 in test [1] stood at 3000 nM; in test [2] it was 170 nM.
